Assay results reported in ChEMBL document CHEMBL1821675, “The selective P-TEFb inhibitor CAN508 targets angiogenesis” (Eur J Med Chem, 2011).
The source made the active and inactive calls. The calls are words filed in the database; no cut-off is given here.

Experiments:
[1] = biological target: Serine/threonine-protein kinase 26 (Homo sapiens) (UniProt Q9P289); assay: Inhibition of MST4 assessed as residual activity at 10 uM by radioactivity assay in presence of 20 uM ATP
ACHN = assay: Cytotoxicity against human ACHN cells; type: functional
HL-60(TB) = assay: Cytotoxicity against human HL-60(TB) cells; type: functional
[2] = biological target: Cyclin-dependent kinase 7 (Homo sapiens) (UniProt P50613); assay: Inhibition of CDK7-catalyzed RNA polymerase 2 phosphorylation at Ser5 in human MCF7 cells at 5 to 40 uM after 2 hrs by immunoblotting; type: cell-based
Chain of Cyclin-dependent kinase 7 (Homo sapiens) (P50613 whole entry): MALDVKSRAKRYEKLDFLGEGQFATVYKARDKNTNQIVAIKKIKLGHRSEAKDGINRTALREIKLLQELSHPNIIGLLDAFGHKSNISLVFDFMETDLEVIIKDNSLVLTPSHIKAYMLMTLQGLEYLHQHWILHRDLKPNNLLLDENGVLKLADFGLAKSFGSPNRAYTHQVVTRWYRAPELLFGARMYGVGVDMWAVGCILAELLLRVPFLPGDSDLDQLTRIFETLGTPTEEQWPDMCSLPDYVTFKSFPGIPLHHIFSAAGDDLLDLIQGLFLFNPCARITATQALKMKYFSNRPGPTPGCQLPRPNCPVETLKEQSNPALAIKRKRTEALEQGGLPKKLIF

[3] = biological target: Protein kinase C alpha type (Homo sapiens) (UniProt P17252); assay: Inhibition of PKCalpha assessed as residual activity at 10 uM by radioactivity assay in presence of 20 uM ATP
[4] = biological target: Receptor tyrosine-protein kinase erbB-4 (Homo sapiens) (UniProt Q15303); assay: Inhibition of HER4 assessed as residual activity at 10 uM by radioactivity assay in presence of 5 uM ATP
Chain of Receptor tyrosine-protein kinase erbB-4 (Homo sapiens) (Q15303 whole entry): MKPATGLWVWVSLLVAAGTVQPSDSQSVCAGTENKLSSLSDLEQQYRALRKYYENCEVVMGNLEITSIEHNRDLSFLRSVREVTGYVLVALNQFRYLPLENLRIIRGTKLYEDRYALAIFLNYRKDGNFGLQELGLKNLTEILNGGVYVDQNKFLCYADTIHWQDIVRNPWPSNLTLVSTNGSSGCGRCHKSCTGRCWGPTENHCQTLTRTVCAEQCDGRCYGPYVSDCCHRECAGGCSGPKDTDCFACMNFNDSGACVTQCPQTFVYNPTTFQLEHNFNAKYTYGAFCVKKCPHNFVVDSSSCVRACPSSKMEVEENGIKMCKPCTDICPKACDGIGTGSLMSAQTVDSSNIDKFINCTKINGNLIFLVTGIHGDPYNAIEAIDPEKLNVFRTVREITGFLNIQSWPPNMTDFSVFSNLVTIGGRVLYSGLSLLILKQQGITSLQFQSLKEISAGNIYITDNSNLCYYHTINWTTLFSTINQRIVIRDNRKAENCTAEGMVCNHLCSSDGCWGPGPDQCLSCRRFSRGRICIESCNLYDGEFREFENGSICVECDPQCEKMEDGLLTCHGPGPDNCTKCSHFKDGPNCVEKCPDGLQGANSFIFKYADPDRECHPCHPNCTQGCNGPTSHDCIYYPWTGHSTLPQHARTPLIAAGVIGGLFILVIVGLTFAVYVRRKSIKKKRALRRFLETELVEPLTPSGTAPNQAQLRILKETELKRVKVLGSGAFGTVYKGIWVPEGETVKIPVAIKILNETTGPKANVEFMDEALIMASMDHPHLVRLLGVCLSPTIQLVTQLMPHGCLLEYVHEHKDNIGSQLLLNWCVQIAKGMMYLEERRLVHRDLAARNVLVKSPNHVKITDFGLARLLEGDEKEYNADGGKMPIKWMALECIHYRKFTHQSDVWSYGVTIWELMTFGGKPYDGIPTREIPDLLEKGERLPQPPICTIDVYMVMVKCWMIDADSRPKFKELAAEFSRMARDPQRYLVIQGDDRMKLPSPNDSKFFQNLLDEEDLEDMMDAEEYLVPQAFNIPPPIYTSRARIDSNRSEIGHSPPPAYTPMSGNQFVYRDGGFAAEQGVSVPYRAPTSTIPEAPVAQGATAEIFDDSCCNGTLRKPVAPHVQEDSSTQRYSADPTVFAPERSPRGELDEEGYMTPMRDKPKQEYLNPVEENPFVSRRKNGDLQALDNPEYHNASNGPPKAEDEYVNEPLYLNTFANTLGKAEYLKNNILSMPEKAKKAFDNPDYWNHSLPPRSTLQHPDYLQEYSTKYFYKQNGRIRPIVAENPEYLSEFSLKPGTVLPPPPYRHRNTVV

RXF 393 = assay: Cytotoxicity against human RXF393 cells; type: functional
[5] = biological target: Phosphorylase b kinase gamma catalytic chain, skeletal muscle/heart isoform (Homo sapiens) (UniProt Q16816); assay: Inhibition of PHKG1 assessed as residual activity at 10 uM by radioactivity assay in presence of 50 uM ATP
Chain of Phosphorylase b kinase gamma catalytic chain, skeletal muscle/heart isoform (Homo sapiens) (Q16816 whole entry, looked up, canonical isoform): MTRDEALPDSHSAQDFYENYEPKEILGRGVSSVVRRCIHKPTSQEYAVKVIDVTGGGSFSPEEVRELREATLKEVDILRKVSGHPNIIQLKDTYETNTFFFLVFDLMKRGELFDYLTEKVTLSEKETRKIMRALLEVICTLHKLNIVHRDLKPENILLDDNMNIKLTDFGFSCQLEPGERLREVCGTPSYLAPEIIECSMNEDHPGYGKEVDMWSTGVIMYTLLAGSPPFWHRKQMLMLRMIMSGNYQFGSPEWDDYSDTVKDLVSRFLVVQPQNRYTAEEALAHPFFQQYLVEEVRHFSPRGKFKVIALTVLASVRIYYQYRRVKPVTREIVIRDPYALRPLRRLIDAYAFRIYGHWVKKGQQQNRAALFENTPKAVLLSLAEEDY

[6] = Antiangiogenic activity in VEGF-stimulated HMEC1 assessed as reduction in total length of tube at 20 uM after 16 hrs by photographic analysis; type: functional, Homo sapiens, HMEC-1; design: scale not given: the % may be the effect or the level left
HUVEC = assay: Antiangiogenic activity against HUVEC cells assessed as inhibition of VEGF-induced cell migration-associated wound closure at >10 uM after 16 hrs by microscopic analysis; type: functional, cell-based; conditions: Homo sapiens
[7] = Inhibition of VEGFR assessed as residual activity at 10 uM by radioactivity assay in presence of 20 uM ATP
SK-MEL-28 = assay: Cytotoxicity against human SK-MEL-28 cells; type: functional
A498 = assay: Cytotoxicity against human A498 cells; type: functional
HMEC-1 = assay: Inhibition of RNA synthesis in human HMEC1 cells assessed as decrease in [3H] Uridine incorporation after 2 hrs by scintillation counting; type: functional, cell-based
[8] = biological target: Mitogen-activated protein kinase kinase kinase 9 (Homo sapiens) (UniProt P80192); assay: Inhibition of MLK1 assessed as residual activity at 10 uM by radioactivity assay in presence of 20 uM ATP
Chain of Mitogen-activated protein kinase kinase kinase 9 (Homo sapiens) (P80192 whole entry, looked up): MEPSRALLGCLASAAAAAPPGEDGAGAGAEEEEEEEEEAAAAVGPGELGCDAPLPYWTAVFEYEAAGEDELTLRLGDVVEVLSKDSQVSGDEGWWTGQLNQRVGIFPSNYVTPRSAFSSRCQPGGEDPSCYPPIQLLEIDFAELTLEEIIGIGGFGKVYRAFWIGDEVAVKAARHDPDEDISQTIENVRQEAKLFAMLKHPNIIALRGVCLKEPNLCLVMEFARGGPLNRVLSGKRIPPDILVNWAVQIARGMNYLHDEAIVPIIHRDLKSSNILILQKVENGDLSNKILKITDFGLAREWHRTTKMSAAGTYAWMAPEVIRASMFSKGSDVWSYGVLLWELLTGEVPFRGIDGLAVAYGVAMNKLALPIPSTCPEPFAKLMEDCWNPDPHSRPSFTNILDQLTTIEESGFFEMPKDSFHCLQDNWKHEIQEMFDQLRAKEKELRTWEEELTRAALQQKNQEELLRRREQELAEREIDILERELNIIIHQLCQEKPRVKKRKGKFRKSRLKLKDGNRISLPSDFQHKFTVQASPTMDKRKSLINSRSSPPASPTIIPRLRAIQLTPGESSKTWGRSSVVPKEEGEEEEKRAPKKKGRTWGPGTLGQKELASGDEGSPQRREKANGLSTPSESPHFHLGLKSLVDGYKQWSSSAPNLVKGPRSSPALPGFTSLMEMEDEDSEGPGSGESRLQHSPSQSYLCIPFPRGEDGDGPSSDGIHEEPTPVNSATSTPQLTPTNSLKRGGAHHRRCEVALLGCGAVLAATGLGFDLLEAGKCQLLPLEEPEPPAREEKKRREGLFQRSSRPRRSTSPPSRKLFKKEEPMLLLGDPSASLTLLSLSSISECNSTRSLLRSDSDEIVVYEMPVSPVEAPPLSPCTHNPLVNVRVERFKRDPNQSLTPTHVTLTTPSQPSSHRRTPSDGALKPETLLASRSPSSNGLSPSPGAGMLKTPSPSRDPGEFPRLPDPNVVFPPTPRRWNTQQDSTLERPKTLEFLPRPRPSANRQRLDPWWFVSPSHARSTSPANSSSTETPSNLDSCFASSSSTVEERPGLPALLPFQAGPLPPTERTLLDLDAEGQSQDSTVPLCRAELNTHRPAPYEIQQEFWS

[9] = biological target: Serine/threonine-protein kinase PAK 5 (Homo sapiens) (UniProt Q9P286); assay: Inhibition of PAK5 assessed as residual activity at 10 uM by radioactivity assay in presence of 20 uM ATP
Chain of Serine/threonine-protein kinase PAK 5 (Homo sapiens) (Q9P286 whole entry, looked up): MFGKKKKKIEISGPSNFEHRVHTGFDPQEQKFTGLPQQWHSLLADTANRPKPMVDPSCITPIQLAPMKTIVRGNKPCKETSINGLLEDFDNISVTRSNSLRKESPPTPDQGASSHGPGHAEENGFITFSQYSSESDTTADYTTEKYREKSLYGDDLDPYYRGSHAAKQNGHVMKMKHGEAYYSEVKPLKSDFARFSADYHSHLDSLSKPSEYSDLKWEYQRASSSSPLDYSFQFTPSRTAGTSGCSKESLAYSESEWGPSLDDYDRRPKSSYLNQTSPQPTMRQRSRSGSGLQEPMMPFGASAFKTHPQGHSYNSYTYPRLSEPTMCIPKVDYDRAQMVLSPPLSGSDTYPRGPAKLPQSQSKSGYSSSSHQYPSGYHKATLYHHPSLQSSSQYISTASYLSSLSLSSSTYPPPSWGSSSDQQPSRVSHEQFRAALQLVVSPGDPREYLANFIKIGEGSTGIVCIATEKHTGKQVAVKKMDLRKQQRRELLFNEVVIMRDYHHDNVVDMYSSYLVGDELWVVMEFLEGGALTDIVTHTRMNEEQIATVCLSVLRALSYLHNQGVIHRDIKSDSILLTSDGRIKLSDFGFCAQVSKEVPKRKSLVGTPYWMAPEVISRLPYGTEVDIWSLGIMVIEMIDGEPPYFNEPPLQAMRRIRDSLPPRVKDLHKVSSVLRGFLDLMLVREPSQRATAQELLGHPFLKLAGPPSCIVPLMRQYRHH

Chain of Serine/threonine-protein kinase 26 (Homo sapiens) (Q9P289 2-416 limits assumed): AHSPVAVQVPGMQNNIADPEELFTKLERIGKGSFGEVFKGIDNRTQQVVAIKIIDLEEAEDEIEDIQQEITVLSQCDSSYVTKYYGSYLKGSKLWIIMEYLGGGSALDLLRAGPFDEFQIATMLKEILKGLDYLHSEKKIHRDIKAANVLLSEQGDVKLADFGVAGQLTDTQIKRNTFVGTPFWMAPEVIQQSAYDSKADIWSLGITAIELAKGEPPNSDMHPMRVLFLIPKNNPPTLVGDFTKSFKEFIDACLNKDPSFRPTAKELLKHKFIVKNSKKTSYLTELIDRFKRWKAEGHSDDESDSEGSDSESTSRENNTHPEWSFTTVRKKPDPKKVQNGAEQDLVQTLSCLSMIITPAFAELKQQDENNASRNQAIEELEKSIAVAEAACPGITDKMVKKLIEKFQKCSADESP

In the case of `Nc1n[nH]c(N)c1/N=N/c1ccc(O)cc1`, the Activity [1] is reported as 77%, the GI50 (ACHN) is reported as 15.6 µM and the GI50 (HL-60(TB)) is reported as 6.4 µM. The inhibition [2] was “Active”, the Activity [3] was 83% and the Activity [4] was 59%. It also gave a GI50 (RXF 393) of 18.4 µM, an Activity [5] of 29% and an Activity [6] of 20%. The inhibition (HUVEC) was “Active”, the Activity [7] was 42% and the GI50 (SK-MEL-28) was 22.1 µM. The GI50 (A498) was 18.2 µM, the IC50 (HMEC-1) was 20 µM and the Activity [8] was 39%. It also gave an Activity [9] of 88%.
